Measured values from US11083708B2, “Pharmacological restoration of epithelial or endothelial barrier integrity by agents blocking EPAC/RAP1 signaling” (The Regents of the University of California, priority 2018, dated 2021).
“Also recorded” adds a separate entry of the source.

Columns and labels:
ET-induced footpad edema = experiment: Mouse footpad edema assay: ET injected into the footpad after systemic drug pre-treatment; assay type: in vivo, BALB/cJ mice; conditions: for Inhibition of ET-induced footpad swelling (edema): i.p. pre-treatment 2-3 h before ET 0.15 pg/20 pl, ESI-09, AG1024, H89 10 mg/kg, SecinH3 250 ul of 2.5 mM, also 2 h post toxin, edema at 8-10 h or 18-24 h
Description: To verify these conclusions in vivo, a footpad swelling assay was turned to in which intra-dermal injection of ET results in robust quantifiable edema. […] The question of which branch(es) of the cAMP pathway contributed to EF-mediated edema was examined by comparing the relative abilities of H89 and ESI-09 to block ET-induced footpad swelling. […] It was concluded that the Epac/Rap1 pathway is the primary mediator of EF-induced edema. In addition, the effect of AG1024 [47], an inhibitor of insulin-like growth factor receptor (IGF-1R), was tested. […] These findings, together with the results described above provide a framework for how effector pathways contribute to cAMP-mediated disruption of Rab11-dependent membrane trafficking (See FIG. 6 for summary diagram).
BALB/cJ mice (8-10 weeks old, female; Jackson Laboratories, Bar Harbor, Me.) were intraperitoneally injected with drugs. SecinH3 (TOCRIS #2849), AG1024 (Selleckchem, S1234), ESI-09 (TOCRIS #4773) or H89 (TOCRIS #2910), or with vehicle (70% DMSO in isotonic glucose for SecinH3, 30% DMSO in isotonic glucose for other drugs) 2-3 h prior to injection of ET (0.15 pg/20 pl, right footpad) or PBS (20 pl, left footpad), and in the case of SecinH3, also 2 h post toxin injection. ESI-09, AG1024 and H89 were administered at 10 mg/kg and SecinH3 was administered as 250 ul and 2.5 mM solution. Edema was assessed at 8-10 h, or 18-24 h by dorsal/plantar measurements using digital calipers.

HBMECs = experiment: ET (EF+PA) intoxication of HBMEC cultures with drug co-treatment; anti-pan-cadherin stain of adherens junctions, Sec15-GFP punctae; assay type: cell-based, human; conditions: EF and PA 0.2 pg/ml-0.4 pg/ml, co-treatment 24 hrs, Slit2 10 pg/ml, ESI-09 100 pM, H89 10 pM
Protocol: The relative contributions of the Arf6, Epac, and PKA pathways to EF-induced inhibition of Rab11 was next examined, making use of HBMEC cultures. […] To inhibit the Arf6 pathway, cells were treated with Slit2, a secreted peptide that activates the Robo4 receptor to promote vascular stability via stimulation of the ArfGAP GIT [27]. […] Next, to determine the relative contribution of each branch of the cAMP pathway, EF-intoxicated cells were co-treated with ESI-09, an inhibitor specific for Epac, or with H89, a well-characterized inhibitor of PKA[45]. […] It was concluded that Epac/Rap1 is the predominant pathway mediating the cAMP induced effects of ET on exocyst-dependent junctional traffic in this setting.
HBMEC cultures were maintained in DMEM (Corning; Manassas, Va.) containing 10% FBS, 1% Penicillin/streptomycin, 2 mM L-glutamine and were incubated in 37° C., 5% CO2 atmosphere. Cells were gently dislodged with 0.05% trypsin (Mediatech Inc.) and cultured on glass poly-D-lysine coated chamber slides (BD Falcon #354108). At about 80% confluence, EF and PA (0.2 pg/ml-0.4 pg/ml) were added to cells. […] After 24 hrs (FIGS. 5A-5H), cells were fixed for 10 mins at −20° C. in 100% Methanol, then washed with 0.1% Triton in PBS, Sec15GFP fluorescence was inspected directly, while Methanol-fixed cells were stained with a mouse anti pan-Cadherin antibody (Abcam, clone CH-19, 1/100). […]

SMILES	Inhibition of ET-induced footpad swelling (edema) (ET-induced footpad edema)	Rescue of junctional pan-cadherin accumulation / adherens junctions (AJs) compromised by EF/ET (HBMECs)	Reversal of ET footpad swelling at both early (8 h) and late (18 h) times (ET-induced footpad edema; injected systemically in mice, 8 h and 18 h)	ET-induced edema in animals in which systemic pre-treatment induced observable symptoms of malaise (ET-induced footpad edema; SecinH3-pretreated mice showing malaise)	Tolerability of systemic pre-treatment with the drug (ET-induced footpad edema; SecinH3 i.p., 250 ul of 2.5 mM solution, some animals)
CC(C)(C)c1cc(C=C(C#N)C#N)cc(Br)c1O [AG1024]	significant reduction of edema; also recorded: can be suppressed; also recorded: Strong, although less persistent, suppression of footpad swelling	–	–	–	–
CC(C)(C)c1cc(C(=O)/C(C#N)=N/Nc2cccc(Cl)c2)no1 [ESI-09]	absolute inhibition of edema; also recorded: strong inhibition of footpad swelling; also recorded: can be suppressed	partially restore normal junctional traffic and visible AJs; also recorded: partially rescues pan-cadherin expression at AJs; also recorded: partially restore junctional barrier integrity	can reverse the footpad swelling	–	–
O=S(=O)(NCCNC/C=C/c1ccc(Br)cc1)c1cccc2cnccc12 [H89]	little or no effect	no detectable rescue; also recorded: does not appreciably rescue junctional cadherin expression	–	–	–
COc1nc(-c2ccc3c(c2)OCO3)n(-c2ccc(NC(=O)CSc3ccccc3)cc2)n1 [SecinH3]	strongly inhibited; also recorded: blocked EF-induced edema; also recorded: can be suppressed	–	–	virtually abolished	observable symptoms of malaise
